Assay [1] has as its system HeLa S3. The assay is described as follows: Inhibition of HMGB1 release in human staurosporine-induced HeLaS3 cells at 100 uM treated 1 hr before staurosporine challenge measured after 24 hrs by Western blotting. Format: functional.
The target of assay [2] is T1, Deoxyribonuclease gamma (Homo sapiens) (UniProt Q13609).
T1 sequence (whole entry): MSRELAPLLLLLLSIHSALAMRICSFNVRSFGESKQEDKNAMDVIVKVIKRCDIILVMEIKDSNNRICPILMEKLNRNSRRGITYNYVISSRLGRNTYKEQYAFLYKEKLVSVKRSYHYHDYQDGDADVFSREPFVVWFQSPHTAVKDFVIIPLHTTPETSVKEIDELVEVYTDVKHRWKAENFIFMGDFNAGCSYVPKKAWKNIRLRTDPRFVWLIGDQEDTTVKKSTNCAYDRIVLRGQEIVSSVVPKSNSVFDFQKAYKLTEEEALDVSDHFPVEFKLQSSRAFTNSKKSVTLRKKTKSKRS
The experiment in a line: (§1) Inhibition of human recombinant DNase gamma expressed in Rosetta DE3 cells assessed as increase in acid soluble DNA after 30 mins. Format: cell-based.

For assay [3], the target named is T2, Deoxyribonuclease gamma (Homo sapiens, UniProt Q13609).
T2 sequence (Q13609 whole entry): T1 sequence (whole entry)
Described as §1. Format: cell-based.

Assay [4] concerns the target T2, Deoxyribonuclease gamma. The assay is described as follows: Inhibition of DNase gamma-mediated HMGB1 release expressed in human staurosporine-induced HeLaS3 cells treated 1 hr before staurosporine challenge measured after 24 hrs by Western blotting.
In assay [5] the target is T1, Deoxyribonuclease gamma (Homo sapiens). The conditions noted are these: HeLa S3; 30 uM.
Description: Inhibition of DNase gamma-mediated nucleosomal DNA fragmentation expressed in human staurosporine-induced HeLaS3 cells at 30 uM treated 1 hr before staurosporine challenge measured after 24 hrs by Western blotting

We go through three molecules from ChEMBL document CHEMBL1641435, “DR396, an apoptotic DNase γ inhibitor, attenuates high mobility group box 1 release from apoptotic cells” (Bioorg Med Chem, 2011).

The source made the active and inactive calls. The calls are words filed in the database; no cut-off is given here.

As to `O=C(N[C@H](CC1CCCCC1)C(=O)O)OCC1c2ccccc2-c2ccccc21`, testing at 100 µM in assay [1] gave an inhibition of 20%. Further, the inhibition result in assay [2] was “Dose-dependent effect”. In addition, the 50% inhibitory concentration (IC50) in assay [3] was 34.5 µM.
In the case of `O=C(O)c1ccc(Nc2nc(Cl)nc(Cl)n2)cc1-c1c2ccc(=O)cc-2oc2cc(O)ccc12`, the inhibition result in assay [1] was “Active”. Besides, the values for the inhibition entry in assay [2] and in assay [5] were “Dose-dependent effect” and 50%, respectively. For the same molecule, the IC50 in assay [3] worked out at 3.2 µM; in assay [4], 30 µM.
`O=S(=O)(O)c1cc(O)c2c(O)c(/N=N/c3cccc4ccccc34)c(S(=O)(=O)O)cc2c1` [PONTACYL VIOLET 6R]: testing at 100 µM in assay [1] gave an inhibition of 50%. The inhibition entry in assay [2] was “Dose-dependent effect”. For the same molecule, the IC50 in assay [3] is 16.1 µM.
